{"source": "PubChem BioAssay (NCI)", "assay_in_all_cases": "NCI anticancer screen, dose series, 48 h", "key": {"[1]": {"system": "A498 renal"}, "[2]": {"system": "A549 NSCLC"}, "[3]": {"system": "ACHN renal"}, "[4]": {"system": "BT-549 breast"}, "[5]": {"system": "CAKI-1 renal"}, "[6]": {"system": "CCRF-CEM leukemia"}, "[7]": {"system": "DU-145 prostate"}, "[8]": {"system": "EKVX NSCLC"}, "[9]": {"system": "HCT-15 colon"}, "[10]": {"system": "HL-60(TB) leukemia"}, "[11]": {"system": "HOP-62 NSCLC"}, "[12]": {"system": "HT29 colon"}, "[13]": {"system": "IGROV1 ovarian"}, "[14]": {"system": "K-562 leukemia"}, "[15]": {"system": "MDA-MB-231 breast"}, "[16]": {"system": "MDA-MB-435"}, "[17]": {"system": "MOLT-4 leukemia"}, "[18]": {"system": "NCI-H226 lung"}, "[19]": {"system": "NCI-H23 lung"}, "[20]": {"system": "NCI/ADR-RES ovarian"}, "[21]": {"system": "OVCAR-3 ovarian"}, "[22]": {"system": "OVCAR-4 ovarian"}, "[23]": {"system": "OVCAR-5 ovarian"}, "[24]": {"system": "OVCAR-8 ovarian"}, "[25]": {"system": "PC-3 prostate"}, "[26]": {"system": "RPMI-8226 leukemia"}, "[27]": {"system": "SF-539 CNS"}, "[28]": {"system": "SK-MEL-28 melanoma"}, "[29]": {"system": "SK-MEL-5 melanoma"}, "[30]": {"system": "SK-OV-3 ovarian"}, "[31]": {"system": "SN12C renal"}, "[32]": {"system": "SNB-75 CNS"}, "[33]": {"system": "SR leukemia"}, "[34]": {"system": "SW-620 colon"}, "[35]": {"system": "T-47D breast"}, "[36]": {"system": "TK-10 renal"}, "[37]": {"system": "UACC-257 melanoma"}, "[38]": {"system": "UO-31 renal"}}, "note": "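Assay format: 96-well plates, 48-hour exposure. The concentration for 50% growth inhibition is given as GI50. At the TGI there is no net growth.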"}
{"compound": "COc1cc2nc(Cl)nc(Nc3cccc(C4=Nc5c(N)nc(N)nc5NC(c5ccc(Cl)cc5)C4)c3)c2cc1OC", "note": "(stereo unspecified)", "values": [{"measurement": "GI50", "setting": "[1]", "value": 10.5, "unit": "µM"}, {"measurement": "TGI", "setting": "[1]", "value": 26.9, "unit": "µM"}, {"measurement": "GI50", "setting": "[2]", "value": 3.14, "unit": "µM"}, {"measurement": "TGI", "setting": "[2]", "value": 16.1, "unit": "µM"}, {"measurement": "GI50", "setting": "[3]", "value": 2.15, "unit": "µM"}, {"measurement": "TGI", "setting": "[3]", "value": 4.87, "unit": "µM"}, {"measurement": "GI50", "setting": "[4]", "value": 7.93, "unit": "µM"}, {"measurement": "TGI", "setting": "[4]", "value": 38, "unit": "µM"}, {"measurement": "GI50", "setting": "[5]", "value": 1.99, "unit": "µM"}, {"measurement": "TGI", "setting": "[5]", "value": 4.49, "unit": "µM"}, {"measurement": "GI50", "setting": "[6]", "value": 1.59, "unit": "µM"}, {"measurement": "TGI", "setting": "[6]", "value": 5.3, "unit": "µM"}, {"measurement": "GI50", "setting": "[7]", "value": 2.07, "unit": "µM"}, {"measurement": "TGI", "setting": "[7]", "value": 4.84, "unit": "µM"}, {"measurement": "GI50", "setting": "[8]", "value": 2.44, "unit": "µM"}, {"measurement": "TGI", "setting": "[8]", "value": 9.17, "unit": "µM"}, {"measurement": "GI50", "setting": "[9]", "value": 2.07, "unit": "µM"}, {"measurement": "TGI", "setting": "[9]", "value": 4.8, "unit": "µM"}, {"measurement": "GI50", "setting": "[10]", "value": 1.79, "unit": "µM"}, {"measurement": "TGI", "setting": "[10]", "value": 4.18, "unit": "µM"}, {"measurement": "GI50", "setting": "[11]", "value": 5.24, "unit": "µM"}, {"measurement": "TGI", "setting": "[11]", "value": 32.5, "unit": "µM"}, {"measurement": "GI50", "setting": "[12]", "value": 2.05, "unit": "µM"}, {"measurement": "TGI", "setting": "[12]", "value": 4.53, "unit": "µM"}, {"measurement": "GI50", "setting": "[13]", "value": 2.9, "unit": "µM"}, {"measurement": "TGI", "setting": "[13]", "value": 10.9, "unit": "µM"}, {"measurement": "GI50", "setting": "[14]", "value": 1.91, "unit": "µM"}, {"measurement": "TGI", "setting": "[14]", "value": 4.16, "unit": "µM"}, {"measurement": "GI50", "setting": "[15]", "value": 1.63, "unit": "µM"}, {"measurement": "TGI", "setting": "[15]", "value": 3.29, "unit": "µM"}, {"measurement": "GI50", "setting": "[16]", "value": 1.64, "unit": "µM"}, {"measurement": "TGI", "setting": "[16]", "value": 3.07, "unit": "µM"}, {"measurement": "GI50", "setting": "[17]", "value": 1.75, "unit": "µM"}, {"measurement": "TGI", "setting": "[17]", "value": 5.1, "unit": "µM"}, {"measurement": "GI50", "setting": "[18]", "value": 14.9, "unit": "µM"}, {"measurement": "TGI", "setting": "[18]", "value": 50.1, "unit": "µM"}, {"measurement": "GI50", "setting": "[19]", "value": 2.69, "unit": "µM"}, {"measurement": "TGI", "setting": "[19]", "value": 8.4, "unit": "µM"}, {"measurement": "GI50", "setting": "[20]", "value": 4.16, "unit": "µM"}, {"measurement": "TGI", "setting": "[20]", "value": 92, "unit": "µM"}, {"measurement": "GI50", "setting": "[21]", "value": 2.04, "unit": "µM"}, {"measurement": "TGI", "setting": "[21]", "value": 4.2, "unit": "µM"}, {"measurement": "GI50", "setting": "[22]", "value": 2, "unit": "µM"}, {"measurement": "TGI", "setting": "[22]", "value": 4.81, "unit": "µM"}, {"measurement": "GI50", "setting": "[23]", "value": 2.12, "unit": "µM"}, {"measurement": "TGI", "setting": "[23]", "value": 5.25, "unit": "µM"}, {"measurement": "GI50", "setting": "[24]", "value": 2.35, "unit": "µM"}, {"measurement": "TGI", "setting": "[24]", "value": 5.99, "unit": "µM"}, {"measurement": "GI50", "setting": "[25]", "value": 3.97, "unit": "µM"}, {"measurement": "TGI", "setting": "[25]", "value": 37.9, "unit": "µM"}, {"measurement": "GI50", "setting": "[26]", "value": 1.97, "unit": "µM"}, {"measurement": "TGI", "setting": "[26]", "value": 4.84, "unit": "µM"}, {"measurement": "GI50", "setting": "[27]", "value": 1.72, "unit": "µM"}, {"measurement": "TGI", "setting": "[27]", "value": 3.13, "unit": "µM"}, {"measurement": "GI50", "setting": "[28]", "value": 1.66, "unit": "µM"}, {"measurement": "TGI", "setting": "[28]", "value": 3.1, "unit": "µM"}, {"measurement": "GI50", "setting": "[29]", "value": 1.68, "unit": "µM"}, {"measurement": "TGI", "setting": "[29]", "value": 3.08, "unit": "µM"}, {"measurement": "GI50", "setting": "[30]", "value": 21.8, "unit": "µM"}, {"measurement": "TGI", "setting": "[30]", "value": 48, "unit": "µM"}, {"measurement": "GI50", "setting": "[31]", "value": 2.68, "unit": "µM"}, {"measurement": "TGI", "setting": "[31]", "value": 8.1, "unit": "µM"}, {"measurement": "GI50", "setting": "[32]", "value": 2.39, "unit": "µM"}, {"measurement": "TGI", "setting": "[32]", "value": 14.3, "unit": "µM"}, {"measurement": "GI50", "setting": "[33]", "value": 1.91, "unit": "µM"}, {"measurement": "TGI", "setting": "[33]", "value": 5.33, "unit": "µM"}, {"measurement": "GI50", "setting": "[34]", "value": 1.85, "unit": "µM"}, {"measurement": "TGI", "setting": "[34]", "value": 3.79, "unit": "µM"}, {"measurement": "GI50", "setting": "[35]", "value": 2.02, "unit": "µM"}, {"measurement": "TGI", "setting": "[35]", "value": 4.61, "unit": "µM"}, {"measurement": "GI50", "setting": "[36]", "value": 2.62, "unit": "µM"}, {"measurement": "TGI", "setting": "[36]", "value": 6.87, "unit": "µM"}, {"measurement": "GI50", "setting": "[37]", "value": 2.43, "unit": "µM"}, {"measurement": "TGI", "setting": "[37]", "value": 6.22, "unit": "µM"}, {"measurement": "GI50", "setting": "[38]", "value": 2.48, "unit": "µM"}, {"measurement": "TGI", "setting": "[38]", "value": 8.89, "unit": "µM"}]}
